Laboratory results from PubChem BioAssay AID248 (DTP/NCI, 2004).
Inconclusive results and toxic doses are left out. Cut-off read from the data, not from the text of the source: active = T/C of 150% or more; inactive = T/C below 125%.

Test system: L1210 leukemia ip in BDF1 mice, survival T/C
Experiment: NCI In Vivo Anticancer Drug Screen. Data for tumor model L1210 Leukemia (intraperitoneal) in B6D2F1 (BDF1) mice
Details: endpoint: mean survival time, higher = longer survival
Summary of the method: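 In this screen, tumor-bearing mice given compound are compared to those given vehicle, and their survival values are reported as a treated-to-control quotient.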

Measured: T/C

O=C1C=C(c2ccccc2)c2cccc3cccc1c23
inactive: dose: 50.0 mg/kg/injection, schedule: Q01DX001 (ip), vehicle: Klucel (hydroxypropylcellulose) (HPC) 98 % of control | dose: 100.0 mg/kg/injection, schedule: Q01DX001 (ip), vehicle: Klucel (hydroxypropylcellulose) (HPC) 87 % of control | dose: 200.0 mg/kg/injection, schedule: Q01DX001 (ip), vehicle: Klucel (hydroxypropylcellulose) (HPC) 92 % of control

CC(C)(CO)N=Cc1ccccc1O.CC(C)(CO)N=Cc1ccccc1O.[Ni]
inactive: dose: 75.0 mg/kg/injection, schedule: Q01DX001 (ip), vehicle: other 110 % of control | dose: 150.0 mg/kg/injection, schedule: Q01DX001 (ip), vehicle: other 117 % of control

CC1C[N-]CC(C)C1.CC1C[N-]CC(C)C1.CC1C[N-]CC(C)C1.CC1C[N-]CC(C)C1.[Cl][Rh][Cl] (stereo not drawn)
inactive: dose: 1.5 mg/kg/injection, schedule: Q01DX009 (ip), vehicle: gum acacia 98 % of control | dose: 3.0 mg/kg/injection, schedule: Q01DX009 (ip), vehicle: gum acacia 96 % of control | dose: 6.0 mg/kg/injection, schedule: Q01DX009 (ip), vehicle: gum acacia 100 % of control | dose: 12.5 mg/kg/injection, schedule: Q04DX003 (ip), vehicle: gum acacia 100 % of control | dose: 25.0 mg/kg/injection, schedule: Q04DX003 (ip), vehicle: gum acacia 93 % of control

OC(Cn1cnc2ccccc21)c1ccccc1 (stereo not drawn)
inactive: dose: 100.0 mg/kg/injection, schedule: Q04DX003 (ip), vehicle: Klucel (hydroxypropylcellulose) (HPC) 96 % of control | dose: 200.0 mg/kg/injection, schedule: Q04DX003 (ip), vehicle: Klucel (hydroxypropylcellulose) (HPC) 97 % of control | dose: 400.0 mg/kg/injection, schedule: Q04DX003 (ip), vehicle: Klucel (hydroxypropylcellulose) (HPC) 94 % of control
